{"source": "patent US8586628B2", "about": "“Use of Propineb as bird repellent” (Bayer Cropscience AG, priority 2009, dated 2013)", "system": "pigeon", "experiment": "Screening experiment with pigeon on the repellency of treated maize seeds (two-bowl choice, treated vs untreated maize)", "format": "in vivo", "conditions": "for Food consumption of untreated maize (U), Day 1 / Food consumption of untreated maize (U), Day 2: untreated bowl beside treated bowl; for Mean food consumption of untreated maize per group and per day, day 0 / Mean food consumption of untreated maize per group and per day, day 1 / Mean food consumption of untreated maize per group and per day, day 3 / Food consumption of untreated maize (U), Mean/group / Food consumption of untreated maize (U), Mean/birds: untreated bowl; for Food consumption of untreated maize (U), Mean/group / Food consumption of treated maize (T), Mean/group: mean of 3 pigeons over Day 0-2; for Food consumption of untreated maize (U), Day 0: untreated bowl (40 g) offered beside treated bowl", "experimental": "Screening Experiment with Pigeon on the Repellency of Maize Seeds Treated with Different Thiram and Propineb Formulations\n15 singly housed pigeons were acclimated to maize as food source over a couple of days. From day—3 to day—1 they received exclusively untreated maize (40 g/bird). Food consumption was determined (see Table 1 below). All birds accepted maize seed as food. The different groups behaved similarly:\nFood was offered in 2 bowls, one with treated, the other with untreated maize. The position of the two bowls was changed from day to day as well as during the day. Food consumption was again measured (see Table 2 below)\nGroup 1 (Aviary 1 to 3): Thiram 160 g/dt\nGroup 2 (Aviary 4 to 6): Thiram 80 g/dt\nGroup 3 (Aviary 7 to 9): Propineb160 g/dt\nGroup 4 (Aviary 10 to 12):Propineb 80 g/dt", "key": {"[1]": {"conditions": "80 g/dt group, single pigeon, Day 1"}, "[2]": {"conditions": "80 g/dt group, mean per bird over Day 0-2"}}, "note": "Where “and” joins values, the source holds several entries; their conditions need not be identical. Equal values may be shown once."}
{"molecule": "CN(C)C(=S)SSC(=S)N(C)C", "note": "[Thiram, reference compound]", "values": [{"measurement": "Food consumption of untreated maize (U), Day 1", "setting": "[1]", "result": "11.8 g and 18.4 g and 18.2 g"}, {"measurement": "Food consumption of untreated maize (U), Day 2", "setting": "80 g/dt group, single pigeon", "result": "14.5 g and 19.3 g and 19.7 g"}, {"measurement": "Mean food consumption of untreated maize per group and per day, day 0", "setting": "80 g/dt group", "result": 16.4, "unit": "g"}, {"measurement": "Mean food consumption of untreated maize per group and per day, day 1", "setting": "80 g/dt group", "result": 16.1, "unit": "g"}, {"measurement": "Mean food consumption of untreated maize per group and per day, day 3", "setting": "80 g/dt group", "result": 17.8, "unit": "g"}, {"measurement": "Food consumption of untreated maize (U), Mean/group", "setting": "80 g/dt group", "result": 16.8, "unit": "g"}, {"measurement": "Food consumption of untreated maize (U), Mean/birds", "setting": "[2]", "result": "13.6 g and 17.8 g and 18.9 g"}, {"measurement": "Food consumption of untreated maize (U), Day 0", "setting": "80 g/dt seed treatment group, single pigeon (aviary), Day 0", "result": "14.4 g and 15.8 g and 18.9 g"}, {"measurement": "Food consumption of untreated maize (U), Day 2", "setting": "160 g/dt group, single pigeon", "result": "14.5 g and 23.4 g and 23.0 g"}, {"measurement": "Mean food consumption of untreated maize per group and per day, day 0", "setting": "160 g/dt group", "result": 16.9, "unit": "g"}, {"measurement": "Mean food consumption of untreated maize per group and per day, day 1", "setting": "160 g/dt group", "result": 18.5, "unit": "g"}, {"measurement": "Mean food consumption of untreated maize per group and per day, day 3", "setting": "160 g/dt group", "result": 20.3, "unit": "g"}, {"measurement": "Food consumption of untreated maize (U), Mean/group", "setting": "160 g/dt group", "result": 18.6, "unit": "g"}, {"measurement": "Mean food consumption of treated maize per group and per day, day 0", "setting": "maize treated at 80 g/dt", "result": 0.9, "unit": "g"}, {"measurement": "Mean food consumption of treated maize per group and per day, day 1", "setting": "maize treated at 80 g/dt", "result": 0.2, "unit": "g"}, {"measurement": "Mean food consumption of treated maize per group and per day, day 3", "setting": "maize treated at 80 g/dt", "result": 1.1, "unit": "g"}, {"measurement": "Food consumption of treated maize (T), Mean/group", "setting": "maize treated at 80 g/dt", "result": 0.7, "unit": "g"}, {"measurement": "Mean food consumption of treated maize per group and per day, day 0", "setting": "maize treated at 160 g/dt", "result": 6.0, "unit": "g"}, {"measurement": "Mean food consumption of treated maize per group and per day, day 1", "setting": "maize treated at 160 g/dt", "result": 5.3, "unit": "g"}, {"measurement": "Mean food consumption of treated maize per group and per day, day 3", "setting": "maize treated at 160 g/dt", "result": 2.8, "unit": "g"}, {"measurement": "Food consumption of treated maize (T), Mean/group", "setting": "maize treated at 160 g/dt", "result": 4.6, "unit": "g"}, {"measurement": "Food consumption of treated maize (T), Mean/birds", "setting": "maize treated at 160 g/dt, mean per bird over Day 0-2", "result": 0.0, "unit": "g"}]}
{"molecule": "Propineb", "values": [{"measurement": "Food consumption of untreated maize (U), Day 1", "setting": "[1]", "result": "17.5 g and 23.2 g and 20.6 g"}, {"measurement": "Food consumption of untreated maize (U), Day 2", "setting": "80 g/dt group, single pigeon", "result": "25.9 g and 27.5 g and 28.6 g"}, {"measurement": "Mean food consumption of untreated maize per group and per day, day 0", "setting": "80 g/dt group", "result": 14.1, "unit": "g"}, {"measurement": "Mean food consumption of untreated maize per group and per day, day 1", "setting": "80 g/dt group", "result": 20.4, "unit": "g"}, {"measurement": "Mean food consumption of untreated maize per group and per day, day 3", "setting": "80 g/dt group", "result": 27.3, "unit": "g"}, {"measurement": "Food consumption of untreated maize (U), Mean/group", "setting": "80 g/dt group", "result": 20.6, "unit": "g"}, {"measurement": "Food consumption of untreated maize (U), Mean/birds", "setting": "[2]", "result": "20.1 g and 23.6 g and 18.0 g"}, {"measurement": "Food consumption of untreated maize (U), Day 1", "setting": "160 g/dt group, single pigeon, Day 1", "result": "24.6 g and 19.5 g and 30.2 g"}, {"measurement": "Food consumption of untreated maize (U), Day 2", "setting": "160 g/dt group, single pigeon", "result": "26.1 g and 19.9 g and 28.3 g"}, {"measurement": "Mean food consumption of untreated maize per group and per day, day 0", "setting": "160 g/dt group", "result": 22.6, "unit": "g"}, {"measurement": "Mean food consumption of untreated maize per group and per day, day 1", "setting": "160 g/dt group", "result": 24.8, "unit": "g"}, {"measurement": "Mean food consumption of untreated maize per group and per day, day 3", "setting": "160 g/dt group", "result": 24.8, "unit": "g"}, {"measurement": "Food consumption of untreated maize (U), Mean/group", "setting": "160 g/dt group", "result": 24.4, "unit": "g"}, {"measurement": "Food consumption of untreated maize (U), Mean/birds", "setting": "160 g/dt group, mean per bird over Day 0-2", "result": "24.6 g and 21.3 g and 26.2 g"}, {"measurement": "Food consumption of untreated maize (U), Day 0", "setting": "160 g/dt seed treatment group, single pigeon (aviary), Day 0", "result": "23.1 g and 24.6 g and 20.0 g"}, {"measurement": "Bird repellent activity compared with Thiram", "setting": "compared at the registered rate of Thiram, pigeon, treated maize seed", "result": "substantially better activity than Thiram"}, {"measurement": "Food consumption of treated maize (T), Day 1", "setting": "maize treated at 80 g/dt, choice with untreated, single pigeon, Day 1", "result": "2.9 g and 1.7 g and 1.8 g"}, {"measurement": "Food consumption of treated maize (T), Day 2", "setting": "maize treated at 80 g/dt, choice with untreated, single pigeon", "result": 0.0, "unit": "g"}, {"measurement": "Mean food consumption of treated maize per group and per day, day 0", "setting": "maize treated at 80 g/dt", "result": 2.8, "unit": "g"}, {"measurement": "Mean food consumption of treated maize per group and per day, day 1", "setting": "maize treated at 80 g/dt", "result": 2.1, "unit": "g"}, {"measurement": "Mean food consumption of treated maize per group and per day, day 3", "setting": "maize treated at 80 g/dt", "result": 0.0, "unit": "g"}, {"measurement": "Food consumption of treated maize (T), Mean/group", "setting": "maize treated at 80 g/dt", "result": 1.7, "unit": "g"}, {"measurement": "Food consumption of treated maize (T), Day 0", "setting": "maize treated at 160 g/dt, 40 g offered beside 40 g untreated, single pigeon (aviary), Day 0", "result": 0.0, "unit": "g"}, {"measurement": "Food consumption of treated maize (T), Day 2", "setting": "maize treated at 160 g/dt, choice with untreated, single pigeon", "result": 0.0, "unit": "g"}, {"measurement": "Mean food consumption of treated maize per group and per day, day 0", "setting": "maize treated at 160 g/dt", "result": 0.0, "unit": "g"}, {"measurement": "Mean food consumption of treated maize per group and per day, day 1", "setting": "maize treated at 160 g/dt", "result": 0.6, "unit": "g"}, {"measurement": "Mean food consumption of treated maize per group and per day, day 3", "setting": "maize treated at 160 g/dt", "result": 0.0, "unit": "g"}, {"measurement": "Food consumption of treated maize (T), Mean/group", "setting": "maize treated at 160 g/dt", "result": 0.2, "unit": "g"}]}
